Assay results reported in patent US20120039957A1 (ACURA PHARMACEUTICALS, INC., priority 2010, published 2012).

What was measured:
[1] = intestinal pH reduced from pH 8 to pH 5; cited from earlier work
[2] = at pH 4.8; cited from earlier work
[3] = for mean time to peak disliking / mean peak disliking effect (Emin), VAS: 480 mg oral tablet, after high-fat breakfast; for mean time to peak disliking: high responders; for mean peak disliking effect (Emin), VAS: high responders (six subjects)
Method: A total of 49 subjects were enrolled. […] As identified in the randomization schedule for each subject, subjects took each dose of study drug immediately following a standardized high-fat breakfast.
During the study, each subject completed a 100 point Visual Analog Scale (VAS) “Like/Dislike” Rating Scale at dosing and for up to 6 hours post-dosing where subjects were asked “Do you like or dislike the drug effect you are feeling now?”

[4] = in the presence of food, VAS over 6 hours

Row | Compound | enhancement of intestinal uptake [1] | fraction non-ionized [2] | mean time to peak disliking [3] | mean peak disliking effect (Emin), VAS [3] | high responder subjects (of six) with lower VAS scores than with standard niacin ([3]; 480 mg, fed, six high responders) | faster time to peak disliking than standard particle size niacin [3, 4] | more substantial disliking effect than standard particle size niacin [3, 4]
1 | O=C(O)c1cccnc1 [niacin] | approximately five fold | 50% |  |  |  |  | 
2 | O=C(O)c1cccnc1 [standard niacin, niacin, reference compound] |  |  | 3.0 h | −15.3 mm |  |  | 
3 | O=C(O)c1cccnc1 [micronized niacin, niacin] |  |  | 2.25 h | −28.7 mm | five | 25% | 89%
